Measurements reported in ChEMBL document CHEMBL1134077, “Synthesis of potent and selective dopamine D(4) antagonists as candidate radioligands” (Bioorg Med Chem Lett, 2001).

Columns and labels:
[1] = biological target: 5-hydroxytryptamine receptor 7 (Homo sapiens, UniProt P34969); assay: In vitro binding affinity to human 5-hydroxytryptamine 7 receptor
D(4) dopamine receptor = biological target: T1, D(4) dopamine receptor (Rattus norvegicus, UniProt P30729); assay: In vitro binding affinity to rat Dopamine receptor D4 measured by displacement of the radioligand [3H]spiperone
T1 sequence (P30729 whole entry): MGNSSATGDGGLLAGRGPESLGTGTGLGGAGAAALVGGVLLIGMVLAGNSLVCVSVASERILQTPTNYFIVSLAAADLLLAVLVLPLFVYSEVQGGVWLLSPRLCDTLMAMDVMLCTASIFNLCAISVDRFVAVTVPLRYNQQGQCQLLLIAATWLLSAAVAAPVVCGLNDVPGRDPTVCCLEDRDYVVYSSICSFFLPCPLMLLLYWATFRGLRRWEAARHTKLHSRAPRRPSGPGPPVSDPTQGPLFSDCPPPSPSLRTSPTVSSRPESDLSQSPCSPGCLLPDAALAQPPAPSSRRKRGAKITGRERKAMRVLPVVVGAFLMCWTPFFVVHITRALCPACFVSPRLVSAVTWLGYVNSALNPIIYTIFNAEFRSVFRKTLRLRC

[2] = biological target: 5-hydroxytryptamine receptor 6 (Homo sapiens, UniProt P50406); assay: In vitro binding affinity to human 5-hydroxytryptamine 6 receptor
Sequence of 5-hydroxytryptamine receptor 6 (P50406 whole entry): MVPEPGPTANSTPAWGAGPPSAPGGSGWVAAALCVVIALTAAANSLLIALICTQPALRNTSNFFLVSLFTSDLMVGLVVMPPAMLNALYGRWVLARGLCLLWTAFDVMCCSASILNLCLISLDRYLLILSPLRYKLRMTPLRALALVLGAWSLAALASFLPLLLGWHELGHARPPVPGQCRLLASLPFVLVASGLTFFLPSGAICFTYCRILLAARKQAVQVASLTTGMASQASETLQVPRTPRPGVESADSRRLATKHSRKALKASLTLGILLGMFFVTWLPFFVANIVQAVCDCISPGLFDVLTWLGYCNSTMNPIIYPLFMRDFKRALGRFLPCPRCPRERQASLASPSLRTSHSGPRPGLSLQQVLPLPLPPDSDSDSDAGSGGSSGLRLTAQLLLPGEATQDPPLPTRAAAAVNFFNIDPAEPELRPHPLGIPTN

[3] = biological target: 5-hydroxytryptamine receptor 2A (Homo sapiens, UniProt P28223); assay: Binding affinity to cloned human 5-hydroxytryptamine 2A receptor
Sequence of 5-hydroxytryptamine receptor 2A (P28223 whole entry): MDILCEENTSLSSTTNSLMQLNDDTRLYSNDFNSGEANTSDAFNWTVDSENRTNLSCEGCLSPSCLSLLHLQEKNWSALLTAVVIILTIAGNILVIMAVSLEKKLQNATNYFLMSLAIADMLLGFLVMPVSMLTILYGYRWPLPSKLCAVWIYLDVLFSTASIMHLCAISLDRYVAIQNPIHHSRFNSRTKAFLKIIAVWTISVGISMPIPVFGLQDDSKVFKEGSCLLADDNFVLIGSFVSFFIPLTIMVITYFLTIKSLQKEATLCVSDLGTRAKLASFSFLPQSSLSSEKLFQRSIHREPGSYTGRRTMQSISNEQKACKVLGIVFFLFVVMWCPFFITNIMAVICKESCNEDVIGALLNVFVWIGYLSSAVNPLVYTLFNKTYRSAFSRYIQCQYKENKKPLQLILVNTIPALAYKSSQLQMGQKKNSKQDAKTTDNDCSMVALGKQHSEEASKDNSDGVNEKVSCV

[4] = Binding affinity to cloned Nicotinic acetylcholine receptors; design: species or system Rattus norvegicus

Sequence of 5-hydroxytryptamine receptor 7 (P34969 whole entry): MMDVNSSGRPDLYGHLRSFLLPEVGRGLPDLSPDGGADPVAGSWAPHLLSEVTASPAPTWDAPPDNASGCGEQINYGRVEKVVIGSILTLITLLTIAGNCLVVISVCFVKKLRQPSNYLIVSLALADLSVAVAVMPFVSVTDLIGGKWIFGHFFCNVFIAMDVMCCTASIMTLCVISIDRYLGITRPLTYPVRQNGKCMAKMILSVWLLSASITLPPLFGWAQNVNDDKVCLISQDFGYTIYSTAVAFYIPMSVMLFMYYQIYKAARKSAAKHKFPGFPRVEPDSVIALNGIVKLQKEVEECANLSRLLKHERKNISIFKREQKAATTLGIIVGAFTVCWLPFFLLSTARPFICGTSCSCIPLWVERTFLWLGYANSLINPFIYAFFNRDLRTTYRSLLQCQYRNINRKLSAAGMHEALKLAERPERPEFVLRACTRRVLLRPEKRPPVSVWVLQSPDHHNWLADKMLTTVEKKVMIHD

Ki [4]	SMILES	Ki [1]	Ki (D(4) dopamine receptor)	Ki [2]	Ki [3]
–	FC(F)(F)c1ccc(N2CCN(Cc3c[nH]c4ncccc34)CC2)cc1	318 nM	34.1 nM	7110 nM	2790 nM
> 10000 nM	Clc1ccc(N2CCN(Cc3c[nH]c4ncccc34)CC2)cc1 [L-745870]	–	–	–	–
